Counter-ions that a name gives are not always drawn.

This assay concerns Human WB (90%) CD69. Briefly: Human WB (90%) CD69. As to conditions: read-out: Human WB (90%) CD69 IC50 (nM); human whole blood (90%), CD69 readout. Format: cell-based.
As usually defined, the IC50 is the concentration at which inhibition is half-maximal. With `CC(C)N1CCN(c2ccc(-c3cc(N4CCN(C(C)C)CC4)c4nc(-c5ccc(S(C)(=O)=O)cc5)n(C)c4c3)cc2)CC1` [Example 1, 4-(4-isopropylpiperazin-1-yl)-6-(4-(4-isopropylpiperazin-1-yl)phenyl)-1-methyl-2-(4-(methylsulfonyl)phenyl)-1H-benzo[d]imidazole], the half-inhibitory concentration (IC50) worked out at 77 nM.

Consider `CC(C)N1CCN(c2ccc(-c3cc(N(C)CCN(C)C)c4nc(-c5ccc(S(C)(=O)=O)cc5)n(C)c4c3)cc2)CC1` [Example 2, N1-(6-(4-(4-isopropylpiperazin-1-yl)phenyl)-1-methyl-2-(4-(methylsulfonyl)phenyl)-1H-benzo[d]imidazol-4-yl)-N^1,N^2,N^2-trimethylethane-1,2-diamine], for which the IC50 came out at 199 nM.

Regarding `CC(C)N1CCN(c2ccc(-c3cc(NCCN4CCCC4)c4nc(-c5ccc(S(C)(=O)=O)cc5)n(C)c4c3)cc2)CC1` [Example 3, 6-(4-(4-isopropylpiperazin-1-yl)phenyl)-1-methyl-2-(4-(methylsulfonyl)phenyl)-N-(2-(pyrrolidin-1-yl)ethyl)-1H-benzo[d]imidazol-4-amine], the 50% inhibitory concentration (IC50) is 87 nM.

Regarding `Cc1nc2c(NCCN3CCOCC3)cc(-c3ccc(N4CCN(C(C)C)CC4)cc3)cc2n1C` [Example 4, 6-(4-(4-isopropylpiperazin-1-yl)phenyl)-1,2-dimethyl-N-(2-morpholinoethyl)-1H-benzo[d]imidazol-4-amine], the IC50 amounted to 106 nM.

Take `COc1ccc(-c2nc3c(NCCN4CCOCC4)cc(-c4ccc(N5CCN(C(C)C)CC5)cc4)cc3n2C)cc1OC` [Example 5, 2-(3,4-dimethoxyphenyl)-6-(4-(4-isopropylpiperazin-1-yl)phenyl)-1-methyl-N-(2-morpholinoethyl)-1H-benzo[d]imidazol-4-amine]: the IC50 was 94 nM.

With `Cc1cc(C)nc(Nc2cc(-c3ccc(N4CCN(C(C)C)CC4)cc3)cc3c2nc(C)n3C)c1` [Example 6, N-(4,6-dimethylpyridin-2-yl)-6-(4-(4-isopropylpiperazin-1-yl)phenyl)-1,2-dimethyl-1H-benzo[d]imidazol-4-amine], the IC50 worked out at 25 nM.

For `Cc1nc2c(NCCN3CCC(F)(F)CC3)cc(-c3ccc(N4CCN(C(C)C)CC4)cc3)cc2n1C` [Example 7, N-(2-(4,4-difluoropiperidin-1-yl)ethyl)-6-(4-(4-isopropylpiperazin-1-yl)phenyl)-1,2-dimethyl-1H-benzo[d]imidazol-4-amine], the IC50 turned out to be 923 nM.

In the case of `COc1cccc(CCNc2cc(-c3ccc(N4CCN(C(C)C)CC4)cc3)cc3c2nc(C)n3C)c1OC` [Example 8, N-(2,3-dimethoxyphenethyl)-6-(4-(4-isopropylpiperazin-1-yl)phenyl)-1,2-dimethyl-1H-benzo[d]imidazol-4-amine, TFA], the IC50 came out at 1560 nM.

For the compound `Cc1nc2c(NC3CCS(=O)(=O)CC3)cc(-c3ccc(N4CCN(C(C)C)CC4)cc3)cc2n1C` [Example 9, 4-((6-(4-(4-isopropylpiperazin-1-yl)phenyl)-1,2-dimethyl-1H-benzo[d]imidazol-4-yl)amino)tetrahydro-2H-thiopyran 1,1-dioxide], the IC50 amounted to 1120 nM.

Regarding `Cc1nc2c(NCCc3ccc(S(C)(=O)=O)cc3)cc(-c3ccc(N4CCN(C(C)C)CC4)cc3)cc2n1C` [Example 10, 6-(4-(4-isopropylpiperazin-1-yl)phenyl)-1,2-dimethyl-N-(4-(methylsulfonyl)phenethyl)-1H-benzo[d]imidazol-4-amine], the IC50 was determined as 813 nM.

As to `Cc1nc2c(NCc3ccc(S(C)(=O)=O)cc3)cc(-c3ccc(N4CCN(C(C)C)CC4)cc3)cc2n1C` [Example 11, 6-(4-(4-isopropylpiperazin-1-yl)phenyl)-1,2-dimethyl-N-(4-(methylsulfonyl)benzyl)-1H-benzo[d]imidazol-4-amine], the IC50 worked out at 918 nM.

Take `Cc1nc2c(NCc3cccc(S(C)(=O)=O)c3)cc(-c3ccc(N4CCN(C(C)C)CC4)cc3)cc2n1C` [Example 12, 6-(4-(4-isopropylpiperazin-1-yl)phenyl)-1,2-dimethyl-N-(3-(methylsulfonyl)benzyl)-1H-benzo[d]imidazol-4-amine]: the IC50 stood at 971 nM.

Regarding `Cc1nc2c(NC3CCN(S(C)(=O)=O)CC3)cc(-c3ccc(N4CCN(C(C)C)CC4)cc3)cc2n1C` [Example 13, 6-(4-(4-isopropylpiperazin-1-yl)phenyl)-1,2-dimethyl-N-(1-(methylsulfonyl)piperidin-4-yl)-1H-benzo[d]imidazol-4-amine], the IC50 stood at 1220 nM.

`Cc1nc2c(NCc3ccc(CN4CCOCC4)cc3)cc(-c3ccc(N4CCN(C(C)C)CC4)cc3)cc2n1C` [Example 14, 6-(4-(4-isopropylpiperazin-1-yl)phenyl)-1,2-dimethyl-N-(4-(morpholinomethyl)benzyl)-1H-benzo[d]imidazol-4-amine]: the IC50 was found to be 31 nM.

Turning to `Cc1ccc(Nc2cc(-c3ccc(N4CCN(C(C)C)CC4)cc3)cc3c2nc(C)n3C)cn1` [Example 15, 6-(4-(4-isopropylpiperazin-1-yl)phenyl)-1,2-dimethyl-N-(6-methylpyridin-3-yl)-1H-benzo[d]imidazol-4-amine], the IC50 came to 526 nM.

Turning to `Cc1nc2c(Nc3ccc(N4CCOCC4)cn3)cc(-c3ccc(N4CCN(C(C)C)CC4)cc3)cc2n1C` [Example 16, 6-(4-(4-isopropylpiperazin-1-yl)phenyl)-1,2-dimethyl-N-(5-morpholinopyridin-2-yl)-1H-benzo[d]imidazol-4-amine], the IC50 is 207 nM.

Take `Cc1nc2c(Nc3ccc(N4CCOCC4)nn3)cc(-c3ccc(N4CCN(C(C)C)CC4)cc3)cc2n1C` [Example 17, 6-(4-(4-isopropylpiperazin-1-yl)phenyl)-1,2-dimethyl-N-(6-morpholinopyridazin-3-yl)-1H-benzo[d]imidazol-4-amine, TFA]: the IC50 was found to be 137 nM.

`Cc1nc2c(Nc3ccc(N4CCOCC4)nc3)cc(-c3ccc(N4CCN(C(C)C)CC4)cc3)cc2n1C` [Example 18, 6-(4-(4-isopropylpiperazin-1-yl)phenyl)-1,2-dimethyl-N-(6-morpholinopyridin-3-yl)-1H-benzo[d]imidazol-4-amine]: the IC50 worked out at 728 nM.

For the compound `Cc1cc(Nc2cc(-c3ccc(N4CCN(C(C)C)CC4)cc3)cc3c2nc(C)n3C)cnc1C` [Example 19, N-(5,6-dimethylpyridin-3-yl)-6-(4-(4-isopropylpiperazin-1-yl)phenyl)-1,2-dimethyl-1H-benzo[d]imidazol-4-amine], the half-inhibitory concentration (IC50) was found to be 452 nM.

As to `Cc1nc2c(Nc3cnccn3)cc(-c3ccc(N4CCN(C(C)C)CC4)cc3)cc2n1C` [Example 20, 6-(4-(4-isopropylpiperazin-1-yl)phenyl)-1,2-dimethyl-N-(pyrazin-2-yl)-1H-benzo[d]imidazol-4-amine], the IC50 was found to be 1270 nM.

With `Cc1nc2c(Nc3ncccn3)cc(-c3ccc(N4CCN(C(C)C)CC4)cc3)cc2n1C` [Example 21, 6-(4-(4-isopropylpiperazin-1-yl)phenyl)-1,2-dimethyl-N-(pyrimidin-2-yl)-1H-benzo[d]imidazol-4-amine], the IC50 came to 1640 nM.

As to `Cc1ccc(Nc2cc(-c3ccc(N4CCN(C(C)C)CC4)cc3)cc3c2nc(C)n3C)nc1` [Example 22, 6-(4-(4-isopropylpiperazin-1-yl)phenyl)-1,2-dimethyl-N-(5-methylpyridin-2-yl)-1H-benzo[d]imidazol-4-amine], the IC50 was determined as 762 nM.

As to `COc1ccnc(Nc2cc(-c3ccc(N4CCN(C(C)C)CC4)cc3)cc3c2nc(C)n3C)c1` [Example 23, 6-(4-(4-isopropylpiperazin-1-yl)phenyl)-N-(4-methoxypyridin-2-yl)-1,2-dimethyl-1H-benzo[d]imidazol-4-amine, TFA], the IC50 came to 370 nM.

For the compound `Cc1ccc(Nc2cc(-c3ccc(N4CCN(C(C)C)CC4)cc3)cc3c2nc(C)n3C)nn1` [Example 24, 6-(4-(4-isopropylpiperazin-1-yl)phenyl)-1,2-dimethyl-N-(6-methylpyridazin-3-yl)-1H-benzo[d]imidazol-4-amine], the IC50 came out at 600 nM.

`CC(C)c1nc2c(NCCN3CCOCC3)cc(-c3ccc(N4CCN(C(C)C)CC4)cc3)cc2n1C` [Example 25, 2-isopropyl-6-(4-(4-isopropylpiperazin-1-yl)phenyl)-1-methyl-N-(2-morpholinoethyl)-1H-benzo[d]imidazol-4-amine, 2 TFA]: the IC50 worked out at 530 nM.

`Cc1cc(C)nc(Nc2cc(-c3ccc(N4CCN(C(C)C)CC4)cc3)cc3c2nc(C(C)C)n3C)c1` [Example 26, N-(4,6-dimethylpyridin-2-yl)-2-isopropyl-6-(4-(4-isopropylpiperazin-1-yl)phenyl)-1-methyl-1H-benzo[d]imidazol-4-amine]: the IC50 came out at 578 nM.

Turning to `Cc1cc(C)nc(Nc2cc(-c3ccc(N4CCN(C(C)C)CC4)cc3)cc3c2nc(C2CCN(S(C)(=O)=O)CC2)n3C)c1` [Example 27, N-(4,6-dimethylpyridin-2-yl)-6-(4-(4-isopropylpiperazin-1-yl)phenyl)-1-methyl-2-(1-(methylsulfonyl)piperidin-4-yl)-1H-benzo[d]imidazol-4-amine], the IC50 was found to be 284 nM.

In the case of `CC(C)N1CCN(c2ccc(-c3cc(NCCN4CCN(S(C)(=O)=O)CC4)c4nc(-c5ccc(S(C)(=O)=O)cc5)n(C)c4c3)cc2)CC1` [Example 28, 6-(4-(4-isopropylpiperazin-1-yl)phenyl)-1-methyl-2-(4-(methylsulfonyl)phenyl)-N-(2-(4-(methylsulfonyl)piperazin-1-yl)ethyl)-1H-benzo[d]imidazol-4-amine, 2 TFA], the IC50 stood at 807 nM.

With `Cc1cc(C)nc(Nc2cc(-c3ccc(N4CCN(C(C)C)CC4)cc3)cc3c2nc(-c2ccc(S(C)(=O)=O)cc2)n3C)c1` [Example 29, N-(4,6-dimethylpyridin-2-yl)-6-(4-(4-isopropylpiperazin-1-yl)phenyl)-1-methyl-2-(4-(methylsulfonyl)phenyl)-1H-benzo[d]imidazol-4-amine], the IC50 is 340 nM.

On to `CC(C)N1CCN(c2ccc(-c3cc(NCCN4CCOCC4)c4nc(C5CCN(S(C)(=O)=O)CC5)n(C)c4c3)cc2)CC1` [Example 30, 6-(4-(4-isopropylpiperazin-1-yl)phenyl)-1-methyl-2-(1-(methylsulfonyl)piperidin-4-yl)-N-(2-morpholinoethyl)-1H-benzo[d]imidazol-4-amine], for which the IC50 came to 374 nM.

(Values after US20260224584A1 (priority 2023, published 2026).)
